Laboratory results: US12252524B2, “GIP/GLP1 co-agonist compounds” (Eli Lilly and Company, priority 2018, dated 2025)
Numbered stars: 1 amine (or outer) side, 2 acyl side, 3 side chain; on linkers, the order of the positions; unused ones are H or OH. Square brackets hold non-standard residues; d marks the D form. Side chains are listed from the residue outwards. Peptide text beside a SMILES is read from it. * marks the point of attachment. C18 diacid = O=C(O)CCCCCCCCCCCCCCCCC(=O)*; γGlu = O=C(O)[C@H](CCC(=O)[*:2])N[*:1]; αMeF = C[C@](N)(Cc1ccccc1)C(=O)O; AEEA = NCCOCCOCC(=O)O; Aib = CC(C)(N)C(=O)O

Legend:
[1] = molecular target: T1, gastric inhibitory peptide receptor (GIPR) (Homo sapiens, UniProt P48546); experiment: cAMP pharmacological functional assay in presence of casein, hGIPR; type: cell-based; settings: HEK293 cells expressing hGIPR, 0.1% Casein, geometric mean; read-out: hGIPR cAMP Rel EC50 nM (SEM, n)
T1 sequence (P48546 22-466): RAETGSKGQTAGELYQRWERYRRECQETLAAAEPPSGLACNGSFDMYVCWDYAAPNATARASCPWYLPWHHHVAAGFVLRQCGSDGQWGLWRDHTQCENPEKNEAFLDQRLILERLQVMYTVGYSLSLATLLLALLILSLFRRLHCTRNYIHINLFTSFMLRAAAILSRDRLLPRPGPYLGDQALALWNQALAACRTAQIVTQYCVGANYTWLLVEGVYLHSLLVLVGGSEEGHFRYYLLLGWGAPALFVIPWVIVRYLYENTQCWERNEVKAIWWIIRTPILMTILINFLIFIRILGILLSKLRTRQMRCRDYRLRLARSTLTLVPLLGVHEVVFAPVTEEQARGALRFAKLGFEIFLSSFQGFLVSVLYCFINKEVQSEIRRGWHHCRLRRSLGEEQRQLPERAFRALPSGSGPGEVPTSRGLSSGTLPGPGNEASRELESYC

human Gcg receptor = molecular target: T2, human Gcg receptor (Homo sapiens, UniProt P47871); experiment: [125I]-Glucagon binding (SPA), human Gcg receptor; settings: read-out: hGLcgR Ki, nM (SEM, n)
T2 construct: expressed in transfected cells; crude membranes
In short: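 Cell pellets were lysed in hypotonic Tris buffer, pH 7.5, homogenized, and spun at low then high speed to give crude membranes. Ki was derived from the fitted IC50.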

human GLP-1R = human GLP-1R (Homo sapiens, UniProt P43220); experiment: [125I]-GLP-1 binding (SPA), human GLP-1 receptor; design: expressed in transfected cells; crude membranes; settings: read-out: hGLP1R Ki, (nM) (SEM, n)
In short: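 Frozen cell pellets are lysed on ice in hypotonic Tris buffer, pH 7.5, homogenized, and centrifuged to a membrane pellet resuspended at about 1 to 3 mg/mL. Binding is then measured in HEPES-based buffer at pH 7.4, and curves are fitted to give IC50 and Ki.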

[2] = molecular target: human GLP-1 receptor (GLP-1R) (Homo sapiens, UniProt P43220); experiment: cAMP pharmacological functional assay in presence of casein, hGLP-1R; type: cell-based; settings: HEK293 cells expressing hGLP-1R, 0.1% Casein, geometric mean; read-out: hGLP1R cAMP Rel EC50 nM (SEM, n)
human GIP receptor = molecular target: T3, human GIP receptor (Homo sapiens, UniProt P48546); experiment: [125I]-GIP binding (SPA), human GIP receptor; settings: read-out: hGIPR Ki, nM (SEM, n)
T3 construct: expressed in transfected cells; crude membranes
T3 sequence (P48546 22-466): T1 sequence (P48546 22-466)

T2 sequence (P47871 26-477): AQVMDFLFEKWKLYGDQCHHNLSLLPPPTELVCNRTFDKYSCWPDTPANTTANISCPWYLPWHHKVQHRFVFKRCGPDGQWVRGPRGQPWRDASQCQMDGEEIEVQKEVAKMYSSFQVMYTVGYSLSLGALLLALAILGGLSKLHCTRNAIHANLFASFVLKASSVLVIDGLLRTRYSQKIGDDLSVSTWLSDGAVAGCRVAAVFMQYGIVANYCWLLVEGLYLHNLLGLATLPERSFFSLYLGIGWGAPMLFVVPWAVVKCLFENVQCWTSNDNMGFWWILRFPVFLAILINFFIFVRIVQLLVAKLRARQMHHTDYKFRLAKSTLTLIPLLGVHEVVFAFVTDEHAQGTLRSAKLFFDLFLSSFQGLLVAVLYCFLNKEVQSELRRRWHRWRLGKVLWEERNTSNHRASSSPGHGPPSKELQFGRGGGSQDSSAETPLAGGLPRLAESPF
Chain of human GLP-1R (P43220 24-463): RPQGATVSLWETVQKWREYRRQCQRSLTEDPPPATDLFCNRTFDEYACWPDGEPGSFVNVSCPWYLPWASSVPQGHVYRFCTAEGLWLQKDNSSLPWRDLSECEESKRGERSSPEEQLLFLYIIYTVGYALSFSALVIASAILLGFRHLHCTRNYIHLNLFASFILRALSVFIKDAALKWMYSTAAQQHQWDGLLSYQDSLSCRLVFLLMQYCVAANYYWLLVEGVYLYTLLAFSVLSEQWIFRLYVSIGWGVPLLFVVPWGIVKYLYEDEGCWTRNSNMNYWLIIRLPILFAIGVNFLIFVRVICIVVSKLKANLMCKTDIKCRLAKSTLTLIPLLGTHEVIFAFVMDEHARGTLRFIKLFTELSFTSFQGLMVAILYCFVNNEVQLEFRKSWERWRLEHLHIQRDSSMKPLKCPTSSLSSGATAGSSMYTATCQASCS
Chain of human GLP-1 receptor (GLP-1R) (P43220 24-463): as above

| EC50 [1] [nM] | Ki (human Gcg receptor) [nM] | Ki (human GLP-1R) [nM] | EC50 [2] [nM] | Ki (human GIP receptor) [nM] | SMILES |
| --- | --- | --- | --- | --- | --- |
| 0.198 | > 1000 | 3.33 | 0.0867 | 0.444 | CC[C@H](C)[C@H](NC(=O)[C@H](CC(C)C)NC(=O)[C@H](Cc1ccc(O)cc1)NC(=O)[C@H](CCC(=O)O)NC(=O)[C@@H](NC(=O)[C@H](Cc1ccccc1)NC(=O)[C@H](C)NC(=O)[C@H](CCCCN)NC(=O)[C@H](CCC(N)=O)NC(=O)[C@H](C)NC(=O)[C@H](CCCCNC(=O)COCCOCCNC(=O)COCCOCCNC(=O)CC[C@H](NC(=O)CCCCCCCCCCCCCCCCC(=O)O)C(=O)O)NC(=O)[C@H](CCCCN)NC(=O)[C@H](CC(=O)O)NC(=O)[C@H](CC(C)C)NC(=O)[C@H](CC(C)C)NC(=O)[C@@H](NC(=O)[C@H](CO)NC(=O)[C@H](Cc1ccc(O)cc1)NC(=O)[C@H](CC(=O)O)NC(=O)[C@H](CO)NC(=O)[C@@H](NC(=O)[C@H](Cc1ccccc1)NC(=O)[C@@H](NC(=O)CNC(=O)[C@H](CCC(=O)O)NC(=O)C(C)(C)NC(=O)[C@@H](N)Cc1ccc(O)cc1)[C@@H](C)O)[C@@H](C)O)[C@@H](C)CC)[C@@H](C)CC)C(=O)N[C@@H](CCC(=O)O)C(=O)NCC(=O)NCC(=O)N1CCC[C@H]1C(=O)N[C@@H](CO)C(=O)N[C@@H](CO)C(=O)NCC(N)=O [Example 296] (H-Y[Aib]EGTFTSDYSILLDKK([AEEA-AEEA-γGlu-C18 diacid])AQKAFIEYLIEGGPSSG-NH2) |
| 0.0451 | > 1240 | 2.98 | 0.111 | 0.0958 | CC[C@H](C)[C@H](NC(=O)[C@H](CC(C)C)NC(=O)[C@H](Cc1ccc(O)cc1)NC(=O)[C@H](CCC(=O)O)NC(=O)[C@@H](NC(=O)[C@H](Cc1ccccc1)NC(=O)[C@H](CCC(=O)O)NC(=O)C(C)(C)NC(=O)[C@H](CCC(N)=O)NC(=O)[C@H](C)NC(=O)[C@H](CCCCNC(=O)COCCOCCNC(=O)COCCOCCNC(=O)CC[C@H](NC(=O)CCCCCCCCCCCCCCCCC(=O)O)C(=O)O)NC(=O)[C@H](CCCCN)NC(=O)[C@H](CC(=O)O)NC(=O)[C@H](CC(C)C)NC(=O)[C@H](CC(C)C)NC(=O)[C@@H](NC(=O)[C@H](CO)NC(=O)[C@H](Cc1ccc(O)cc1)NC(=O)[C@H](CC(=O)O)NC(=O)[C@H](CO)NC(=O)[C@@H](NC(=O)[C@H](Cc1ccccc1)NC(=O)[C@@H](NC(=O)CNC(=O)[C@H](CCC(=O)O)NC(=O)C(C)(C)NC(=O)[C@@H](N)Cc1ccc(O)cc1)[C@@H](C)O)[C@@H](C)O)[C@@H](C)CC)[C@@H](C)CC)C(=O)N[C@@H](C)C(=O)NCC(=O)NCC(N)=O [Example 297] (H-Y[Aib]EGTFTSDYSILLDKK([AEEA-AEEA-γGlu-C18 diacid])AQ[Aib]EFIEYLIAGG-NH2) |
| 0.932 | > 1040 | 54.3 | 2.54 | 0.734 | CC[C@H](C)[C@H](NC(=O)[C@H](CC(C)C)NC(=O)[C@H](Cc1ccc(O)cc1)NC(=O)[C@H](CCC(=O)O)NC(=O)[C@H](CC(C)C)NC(=O)[C@H](Cc1ccccc1)NC(=O)[C@H](C)NC(=O)C(C)(C)NC(=O)[C@H](CCC(N)=O)NC(=O)[C@H](C)NC(=O)[C@H](CCCCNC(=O)COCCOCCNC(=O)COCCOCCNC(=O)CC[C@H](NC(=O)CCCCCCCCCCCCCCCCC(=O)O)C(=O)O)NC(=O)[C@H](CCCCN)NC(=O)[C@H](CC(=O)O)NC(=O)[C@H](CC(C)C)NC(=O)[C@H](CC(C)C)NC(=O)[C@@H](NC(=O)[C@H](CO)NC(=O)[C@H](Cc1ccc(O)cc1)NC(=O)[C@H](CC(=O)O)NC(=O)[C@H](CO)NC(=O)[C@@H](NC(=O)[C@H](Cc1ccccc1)NC(=O)[C@@H](NC(=O)CNC(=O)[C@H](CCC(=O)O)NC(=O)C(C)(C)NC(=O)[C@@H](N)Cc1ccc(O)cc1)[C@@H](C)O)[C@@H](C)O)[C@@H](C)CC)C(=O)N[C@@H](CCC(=O)O)C(=O)NCC(=O)NCC(=O)N1CCC[C@H]1C(=O)N[C@@H](CO)C(=O)N[C@@H](CO)C(=O)NCC(N)=O [Example 299] (H-Y[Aib]EGTFTSDYSILLDKK([AEEA-AEEA-γGlu-C18 diacid])AQ[Aib]AFLEYLIEGGPSSG-NH2) |
| 0.0285 | 117 | 5.1 | 0.0437 | 0.0773 | CC[C@H](C)[C@H](NC(=O)[C@H](CC(C)C)NC(=O)[C@H](Cc1ccc(O)cc1)NC(=O)[C@H](CCC(=O)O)NC(=O)[C@@H](NC(=O)[C@H](Cc1ccccc1)NC(=O)[C@H](C)NC(=O)C(C)(C)NC(=O)[C@H](CCC(N)=O)NC(=O)[C@H](C)NC(=O)[C@H](CCCCNC(=O)COCCOCCNC(=O)COCCOCCNC(=O)CC[C@H](NC(=O)CCCCCCCCCCCCCCCCC(=O)O)C(=O)O)NC(=O)[C@H](CCC(=O)O)NC(=O)[C@H](CC(=O)O)NC(=O)[C@H](CC(C)C)NC(=O)[C@H](CC(C)C)NC(=O)[C@@H](NC(=O)[C@H](CO)NC(=O)[C@H](Cc1ccc(O)cc1)NC(=O)[C@H](CC(=O)O)NC(=O)[C@H](CO)NC(=O)[C@@H](NC(=O)[C@](C)(Cc1ccccc1)NC(=O)[C@@H](NC(=O)CNC(=O)[C@H](CCC(=O)O)NC(=O)C(C)(C)NC(=O)[C@@H](N)Cc1ccc(O)cc1)[C@@H](C)O)[C@@H](C)O)[C@@H](C)CC)[C@@H](C)CC)C(=O)N[C@@H](CCC(=O)O)C(=O)NCC(=O)NCC(=O)N1CCC[C@H]1C(=O)N[C@@H](CO)C(=O)N[C@@H](CO)C(=O)NCC(N)=O [Example 307] (H-Y[Aib]EGT[αMeF]TSDYSILLDEK([AEEA-AEEA-γGlu-C18 diacid])AQ[Aib]AFIEYLIEGGPSSG-NH2) |
| 0.0262 | 94.2 | 1.01 | 0.0392 | 0.0288 | CC[C@H](C)[C@H](NC(=O)[C@H](CC(C)C)NC(=O)[C@H](Cc1ccc(O)cc1)NC(=O)[C@H](CCC(=O)O)NC(=O)[C@@H](NC(=O)[C@H](Cc1ccccc1)NC(=O)[C@H](CCC(=O)O)NC(=O)C(C)(C)NC(=O)[C@H](CCC(N)=O)NC(=O)[C@H](C)NC(=O)[C@H](CCCCNC(=O)COCCOCCNC(=O)COCCOCCNC(=O)CC[C@H](NC(=O)CCCCCCCCCCCCCCCCC(=O)O)C(=O)O)NC(=O)[C@H](CCCCN)NC(=O)[C@H](CC(=O)O)NC(=O)[C@H](CC(C)C)NC(=O)[C@H](CC(C)C)NC(=O)[C@@H](NC(=O)[C@H](CO)NC(=O)[C@H](Cc1ccc(O)cc1)NC(=O)[C@H](CC(=O)O)NC(=O)[C@H](CO)NC(=O)[C@@H](NC(=O)[C@](C)(Cc1ccccc1)NC(=O)[C@@H](NC(=O)CNC(=O)[C@H](CCC(=O)O)NC(=O)C(C)(C)NC(=O)[C@@H](N)Cc1ccc(O)cc1)[C@@H](C)O)[C@@H](C)O)[C@@H](C)CC)[C@@H](C)CC)C(=O)N[C@@H](CCC(=O)O)C(=O)NCC(=O)NCC(=O)N1CCC[C@H]1C(=O)N[C@@H](CO)C(=O)N[C@@H](CO)C(=O)NCC(N)=O [Example 308] (H-Y[Aib]EGT[αMeF]TSDYSILLDKK([AEEA-AEEA-γGlu-C18 diacid])AQ[Aib]EFIEYLIEGGPSSG-NH2) |
| 0.0389 | 64.1 | 1.04 | 0.033 | 0.0264 | CC[C@H](C)[C@H](NC(=O)[C@H](CC(C)C)NC(=O)[C@H](Cc1ccc(O)cc1)NC(=O)[C@H](CCC(=O)O)NC(=O)[C@@H](NC(=O)[C@H](Cc1ccccc1)NC(=O)[C@H](C)NC(=O)C(C)(C)NC(=O)[C@H](CCC(N)=O)NC(=O)[C@H](C)NC(=O)[C@H](CCCCNC(=O)COCCOCCNC(=O)COCCOCCNC(=O)CC[C@H](NC(=O)CCCCCCCCCCCCCCCCC(=O)O)C(=O)O)NC(=O)[C@H](CCCCN)NC(=O)[C@H](CC(=O)O)NC(=O)[C@H](CC(C)C)NC(=O)[C@H](CC(C)C)NC(=O)[C@@H](NC(=O)[C@H](CO)NC(=O)[C@H](Cc1ccc(O)cc1)NC(=O)[C@H](CC(=O)O)NC(=O)[C@H](CO)NC(=O)[C@@H](NC(=O)[C@](C)(Cc1ccccc1)NC(=O)[C@@H](NC(=O)CNC(=O)[C@H](CCC(=O)O)NC(=O)C(C)(C)NC(=O)[C@@H](N)Cc1ccc(O)cc1)[C@@H](C)O)[C@@H](C)O)[C@@H](C)CC)[C@@H](C)CC)C(=O)N[C@@H](C)C(=O)NCC(=O)NCC(=O)N1CCC[C@H]1C(=O)N[C@@H](CO)C(=O)N[C@@H](CO)C(=O)NCC(N)=O [Example 309] (H-Y[Aib]EGT[αMeF]TSDYSILLDKK([AEEA-AEEA-γGlu-C18 diacid])AQ[Aib]AFIEYLIAGGPSSG-NH2) |
